# Test results reported in patent US20200039930A1, “PROLINE AMIDE COMPOUNDS AND THEIR AZETIDINE ANALOGUES CARRYING A SPECIFICALLY SUBSTITUTED BENZYL RADICAL” (AbbVie Deutschland GmbH & Co. KG, priority 2017, published 2020).
# Key:
# 5-HT2C receptor = target: T1, 5-HT2C receptor (Homo sapiens, UniProt P28335); test: Human 5-HT2C functional assay (beta-arrestin2 recruitment, U2OS_HTR2C_β-Arrestin cells); type: cell-based; details: compounds used as acid addition salts; for EC50: U2OS_HTR2C_β-Arrestin cells, 1.5 h incubation, read-out: EC50 5-HT2C (potency in functional assay); for Emax: relative efficacy vs response to 10 µM 5-HT or maximal effect of 5-HT (100%)
# T1 construct: host or cells: U2OS
# Protocol: The functional activity of compounds of formula I was assayed by incubation with U2OS_HTR2C_β-Arrestin cells (DiscoverX, 93-0289C3) to induce beta-arrestin2 recruitment to the 5-HT2C receptor. The agonist-induced recruitment and proximity of the receptor and beta-arrestin2 leads to complementation and formation of active β-galactosidase. The enzyme complementation results in enzyme activity, which is measured following the termination of the agonist incubation using DiscoveRx's detection reagent, which contains a chemiluminescent substrate which produces a high intensity signal. Cells were plated and a medium-change to a 1% serum containing medium was performed 24 h later. The next day, test compounds were added and incubated for 1.5 h before addition of detection reagent.
# The response produced was measured and compared with the response produced by 10 [mu]M 5-HT or the maximal effect induced by 5-HT (defined as 100%) to which it was expressed as a percentage response (relative efficacy). Dose response curves were con-structed using Graphpad Prism (Graph Software Inc.) or using in house adapted software using a 4 parameter dose response model with variable slope (fit=(Bottom+(Top−Bottom)/(1+10^((LogEC50−x)*Hill Slope))res=(y−fit)). Results are compiled in the table below.
# [1] = Metabolic stability: unbound intrinsic clearance in liver microsomes; type: in vitro ADME; details: rat; liver microsomes 0.25 mg protein/mL, 0.5 μM compound, pH 7.4, 37° C.; Cl int unbound=Cl int/fu mic; compounds used as acid addition salts; read-out: Cl int, mic unb. (r) (unbound intrinsic clearance)
# Protocol: Samples of the tested compounds (0.5 μM) were preincubated together with rat liver microsomes (0.25 mg of microsomal protein/mL) in 0.05 M potassium phosphate buffer of pH 7.4 in microtiter plates at 37° C. for 5 minutes. The reaction was started by adding NADPH (1.0 mM). After 0, 5, 10, 15, 20 and 30 minutes, an aliquot was removed, the reaction was cooled and stopped by adding twice the amount of quench solution consisting of acetonitrile/methanol 1:1, and containing […] carbutamide as internal standard. The samples were frozen until analyzed. The remaining concentration of undegraded test substance was determined by liquid chromatography-tandem mass spectrometry (LC-MS/MS). The half-life (t1/2) was determined from the gradient of the ratio of the signal of (test substance/internal standard)/unit time plot, allowing the calculation of the half-life of the test substance, assuming first order kinetics, from the decrease in the concentration of the compound with time. The microsomal clearance (mClint) was calculated as follows: mClint=((ln(2)/t 1/2)/Microsomal Protein Concentration (mg/ml))*1000, leading to the unit of uL/min/mg. The scaled clearance (mClin_scaled) was calculated as mCLint_scaled=m CLint*(Microsomal Yield (mg/kg BW))/1000000*60, leading to the units L/h/kg. The Microsomal Yield is defined by the specifics of the used microsomes. Calculations were modified from refer-ences: Di, The Society for Biomolecular Screening, 2003, 453-462; Obach, D M D, 1999 vol 27. N 11, 1350-1359.
# A suspension of 0.25 mg/ml microsomal protein spiked with 0.5 μM of test compound was pipetted on one side of a HTDialysis device (HTDialysis LLC,37 Ledgewood Drive, Gales Fery Conn. 06335) separated by a membrane with a MWcut off 12-14 K. 50 mM K-Phosphate buffer (pH 7.4) was added on the other side of the well. After incubation at 37° C. for 4 h while shaking at 150 rpm, aliquots of both sides were taken, quenched with MeOH/ACN 1:1 and 0.2 μM of internal standard and frozen until analy-sis by LCMSMS.
# Cl int unbound=Cl int/fu mic
# The compounds were used in form of their respective acid addition salts.
# T1 sequence (P28335 33-458): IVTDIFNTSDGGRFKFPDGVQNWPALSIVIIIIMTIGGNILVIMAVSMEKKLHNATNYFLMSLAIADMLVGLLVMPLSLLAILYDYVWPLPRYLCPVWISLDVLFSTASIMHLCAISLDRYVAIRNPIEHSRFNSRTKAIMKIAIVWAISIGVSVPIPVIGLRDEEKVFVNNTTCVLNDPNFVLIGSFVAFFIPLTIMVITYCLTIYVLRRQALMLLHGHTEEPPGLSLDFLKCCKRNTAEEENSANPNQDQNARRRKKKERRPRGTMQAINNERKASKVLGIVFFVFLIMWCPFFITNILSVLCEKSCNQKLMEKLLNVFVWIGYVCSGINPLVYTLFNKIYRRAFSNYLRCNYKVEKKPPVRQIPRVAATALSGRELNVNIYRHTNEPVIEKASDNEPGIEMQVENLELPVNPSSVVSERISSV
# T1 sequence (P32121 whole entry partner): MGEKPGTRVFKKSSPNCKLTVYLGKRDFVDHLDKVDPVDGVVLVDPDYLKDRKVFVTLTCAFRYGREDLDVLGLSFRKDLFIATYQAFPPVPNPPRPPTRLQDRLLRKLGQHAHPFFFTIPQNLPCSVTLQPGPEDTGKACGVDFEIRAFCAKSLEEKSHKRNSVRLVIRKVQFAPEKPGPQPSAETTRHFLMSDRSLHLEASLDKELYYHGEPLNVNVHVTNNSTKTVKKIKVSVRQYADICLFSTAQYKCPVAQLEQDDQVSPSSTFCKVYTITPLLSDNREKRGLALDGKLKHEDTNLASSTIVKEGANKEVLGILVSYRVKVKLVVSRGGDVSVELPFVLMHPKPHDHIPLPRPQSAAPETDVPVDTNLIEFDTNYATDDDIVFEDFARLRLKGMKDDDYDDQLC
EC50 (5-HT2C receptor),Emax (5-HT2C receptor),CLint scaled at 0.5 μM [1],SMILES
< 5 nM,> 70%,1330 to 4170 mL/min/kg,"COc1cc(OCc2cccc(F)c2)c(F)cc1CNC(=O)[C@@H]1CCCN1 [Example 1, (2S)—N-[[5-Fluoro-4-[(3-fluorophenyl)methoxy]-2-methoxy-phenyl]methyl]-pyrrolidine-2-carboxamide]"
5 to 15 nM,> 70%,1330 to 4170 mL/min/kg,"COc1cc(OCc2cccc(F)c2F)c(F)cc1CNC(=O)[C@@H]1CCCN1 [Example 4, (2S)—N-[[4-[(2,3-Difluorophenyl)methoxy]-5-fluoro-2-methoxy-phenyl]methyl]-pyrrolidine-2-carboxamide]"
15 to 30 nM,> 70%,1330 to 4170 mL/min/kg,"COc1cc(OCc2ccccc2F)c(F)cc1CNC(=O)[C@@H]1CCCN1 [Example 6, (2S)—N-[[5-Fluoro-4-[(2-fluorophenyl)methoxy]-2-methoxy-phenyl]methyl]-pyrrolidine-2-carboxamide]"
5 to 15 nM,> 70%,1330 to 4170 mL/min/kg,"COc1cc(OCCc2ccc(C(F)(F)F)cc2)c(F)cc1CNC(=O)[C@@H]1CCCN1 [Example 14, (2S)—N-[[5-Fluoro-2-methoxy-4-[2-[4-(trifluoromethyl)phenyl]ethoxy]phenyl]-methyl]pyrrolidine-2-carboxamide]"
5 to 15 nM,> 70%,1330 to 4170 mL/min/kg,"COc1cc(OCc2ccc(C(F)(F)F)o2)c(F)cc1CNC(=O)[C@@H]1CCCN1 [Example 15, (2S)—N-[[5-fluoro-2-methoxy-4-[[5-(trifluoromethyl)-2-furyl]methoxy]phenyl]-methyl]pyrrolidine-2-carboxamide]"
15 to 30 nM,> 70%,< 500 mL/min/kg,"COc1cc(O[C@H]2CC[C@@H](F)CC2)c(F)cc1CNC(=O)[C@@H]1CCCN1 [Example 16, (S)—N-(5-Fluoro-4-((cis-4-fluorocyclohexyl)oxy)-2-methoxybenzyl)pyrrolidine-2-carboxamide]"
5 to 15 nM,> 70%,< 500 mL/min/kg,"COc1cc(O[C@H]2CC[C@H](F)CC2)c(F)cc1CNC(=O)[C@@H]1CCCN1 [Example 17, (S)—N-(5-Fluoro-4-((trans-4-fluorocyclohexyl)oxy)-2-methoxybenzyl)pyrrolidine-2-carboxamide]"
15 to 30 nM,> 70%,< 500 mL/min/kg,"COc1cc(OCCC(F)(F)F)c(F)cc1CNC(=O)[C@@H]1CCCN1 [Example 19, (2S)—N-[[5-Fluoro-2-methoxy-4-(3,3,3-trifluoropropoxy)phenyl]methyl]pyrrolidine-2-carboxamide]"
< 5 nM,> 70%,< 500 mL/min/kg,"COc1cc(OCC(F)(F)C(F)F)c(F)cc1CNC(=O)[C@@H]1CCCN1 [Example 20, (2S)—N-[[5-Fluoro-2-methoxy-4-(2,2,3,3-tetrafluoropropoxy)phenyl]methyl]-pyrrolidine-2-carboxamide]"
5 to 15 nM,> 70%,< 500 mL/min/kg,"COc1cc(OC(C)C(F)(F)C(F)F)c(F)cc1CNC(=O)[C@@H]1CCCN1 (stereo partly drawn) [Example 22, (2S)—N-[[5-Fluoro-2-methoxy-4-(2,2,3,3-tetrafluoro-1-methyl-propoxy)phenyl]-methyl]pyrrolidine-2-carboxamide]"

# The next lines start with the compound.
SMILES,EC50 (5-HT2C receptor),Emax (5-HT2C receptor),CLint scaled at 0.5 μM [1]
"COc1cc(OCc2cc(F)cc(F)c2F)c(F)cc1CNC(=O)[C@@H]1CCCN1 [Example 2, (2S)—N-[[5-Fluoro-2-methoxy-4-[(2,3,5-trifluorophenyl)methoxy]phenyl]methyl]-pyrrolidine-2-carboxamide]",5 to 15 nM,> 70%,1330 to 4170 mL/min/kg
"COc1cc(OCc2ccc(F)cc2)c(F)cc1CNC(=O)[C@@H]1CCCN1 [Example 3, (2S)—N-[[5-Fluoro-4-[(4-fluorophenyl)methoxy]-2-methoxy-phenyl]methyl]-pyrrolidine-2-carboxamide]",< 5 nM,> 70%,1330 to 4170 mL/min/kg
"COc1cc(OCc2cc(F)cc(F)c2)c(F)cc1CNC(=O)[C@@H]1CCCN1 [Example 5, (2S)—N-[[4-[(3,5-Difluorophenyl)methoxy]-5-fluoro-2-methoxy-phenyl]methyl]-pyrrolidine-2-carboxamide]",< 5 nM,> 70%,1330 to 4170 mL/min/kg
"COc1cc(OCc2c(F)ccc(F)c2Cl)c(F)cc1CNC(=O)[C@@H]1CCCN1 [Example 7, (2S)—N-[[4-[(2-Chloro-3,6-difluoro-phenyl)methoxy]-5-fluoro-2-methoxy-phenyl]-methyl]pyrrolidine-2-carboxamide]",15 to 30 nM,> 70%,1330 to 4170 mL/min/kg
"COc1cc(OCc2ccnc(F)c2)c(F)cc1CNC(=O)[C@@H]1CCCN1 [Example 8, (2S)—N-[[5-fluoro-4-[(2-fluoro-4-pyridyl)methoxy]-2-methoxy-phenyl]methyl]-pyrrolidine-2-carboxamide]",15 to 30 nM,> 70%,< 500 mL/min/kg
"COc1cc(OCc2cncc(F)c2)c(F)cc1CNC(=O)[C@@H]1CCCN1 [Example 9, (2S)—N-[[5-Fluoro-4-[(5-fluoro-3-pyridyl)methoxy]-2-methoxy-phenyl]methyl]-pyrrolidine-2-carboxamide]",15 to 30 nM,> 70%,500 to 1330 mL/min/kg
"COc1cc(OCc2ccc(C(F)(F)F)nc2)c(F)cc1CNC(=O)[C@@H]1CCCN1 [Example 10, (2S)—N-[[5-fluoro-2-methoxy-4-[[6-(trifluoromethyl)-3-pyridyl]methoxy]phenyl]-methyl]pyrrolidine-2-carboxamide]",15 to 30 nM,> 70%,500 to 1330 mL/min/kg
"COc1cc(OCCc2ccc(F)cc2)c(F)cc1CNC(=O)[C@@H]1CCCN1 [Example 11, (2S)—N-[[5-Fluoro-4-[2-(4-fluorophenyl)ethoxy]-2-methoxy-phenyl]methyl]-pyrrolidine-2-carboxamide]",5 to 15 nM,> 70%,1330 to 4170 mL/min/kg
"COc1cc(OCCc2cccc(F)c2)c(F)cc1CNC(=O)[C@@H]1CCCN1 [Example 12, (2S)—N-[[5-Fluoro-4-[2-(3-fluorophenyl)ethoxy]-2-methoxy-phenyl]methyl]-pyrrolidine-2-carboxamide]",5 to 15 nM,> 70%,1330 to 4170 mL/min/kg
"COc1cc(OCCc2ccccc2F)c(F)cc1CNC(=O)[C@@H]1CCCN1 [Example 13, (2S)—N-[[5-Fluoro-4-[2-(2-fluorophenyl)ethoxy]-2-methoxy-phenyl]methyl]-pyrrolidine-2-carboxamide]",< 5 nM,> 70%,1330 to 4170 mL/min/kg
"COc1cc(OC2CCC(F)(F)CC2)c(F)cc1CNC(=O)[C@@H]1CCCN1 [Example 18, (2S)—N-[[4-(4,4-Difluorocyclohexoxy)-5-fluoro-2-methoxy-phenyl]methyl]-pyrrolidine-2-carboxamide]",5 to 15 nM,> 70%,< 500 mL/min/kg
"COc1cc(OCC(F)(F)C(F)C(F)(F)F)c(F)cc1CNC(=O)[C@@H]1CCCN1 (stereo partly drawn) [Example 21, (2S)—N-[[5-Fluoro-4-(2,2,3,4,4,4-hexafluorobutoxy)-2-methoxy-phenyl]methyl]-pyrrolidine-2-carboxamide]",< 5 nM,> 70%,< 500 mL/min/kg
"COc1cc(OCCCC(F)(F)F)c(F)cc1CNC(=O)[C@@H]1CCCN1 [Example 23, (2S)—N-[[5-Fluoro-2-methoxy-4-(4,4,4-trifluorobutoxy)phenyl]methyl]pyrrolidine-2-carboxamide]",< 5 nM,> 70%,< 500 mL/min/kg
